Measured values reported in ChEMBL document CHEMBL1795213, “Design, synthesis and biological activity of novel peptidyl benzyl ketone FVIIa inhibitors” (Bioorg Med Chem Lett, 2011).
≈ marks a conversion by molar mass, not a printed value.

What was measured:
[1] = Solubility of the compound in buffer; type: physicochemical
Coagulation factor VII [2] = target: T1, Coagulation factor VII (Homo sapiens, UniProt P08709); assay: Inhibition of recombinant F7a using S-2288 as substrate after 15 mins by competitive binding assay
T1 sequence (P08709 whole entry): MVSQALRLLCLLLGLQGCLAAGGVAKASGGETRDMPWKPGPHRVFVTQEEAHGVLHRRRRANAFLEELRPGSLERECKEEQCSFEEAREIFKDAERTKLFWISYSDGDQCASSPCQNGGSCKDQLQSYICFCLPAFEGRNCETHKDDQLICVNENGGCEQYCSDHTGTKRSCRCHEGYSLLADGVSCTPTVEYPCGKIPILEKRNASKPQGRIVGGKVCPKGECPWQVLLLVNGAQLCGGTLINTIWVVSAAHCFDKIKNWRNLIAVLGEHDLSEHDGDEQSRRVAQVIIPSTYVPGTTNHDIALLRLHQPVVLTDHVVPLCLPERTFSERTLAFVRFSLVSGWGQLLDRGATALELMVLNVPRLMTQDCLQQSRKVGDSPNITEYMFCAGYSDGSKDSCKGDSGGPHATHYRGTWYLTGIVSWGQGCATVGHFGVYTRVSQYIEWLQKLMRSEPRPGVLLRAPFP

Coagulation factor VII [3] = target: T1, Coagulation factor VII; assay: Inhibition of recombinant F7a using S-2288 as substrate after 15 mins by linear fitting analysis
Prothrombin [4] = target: T2, Prothrombin (Homo sapiens, UniProt P00734); assay: Inhibition of thrombin using S-2288 as substrate after 15 mins by competitive binding assay relative to control
[5] = target: T3, Coagulation factor VII (Homo sapiens) (UniProt P08709); assay: Inhibition of recombinant F7a using S-2288 as substrate after 15 mins by competitive binding assay relative to control
T3 sequence (whole entry): T1 sequence (P08709 whole entry)

Coagulation factor X [6] = target: T4, Coagulation factor X (Homo sapiens, UniProt P00742); assay: Inhibition of F10a using S-2288 as substrate after 15 mins by competitive binding assay relative to control
Coagulation factor X [7] = target: T4, Coagulation factor X; assay: Inhibition of F10a using S-2288 as substrate after 15 mins by competitive binding assay
Prothrombin [8] = target: T2, Prothrombin; assay: Inhibition of thrombin using S-2288 as substrate after 15 mins by competitive binding assay

## Cc1c(C)c(S(=O)(=O)NC(=N)NCCCC[C@H](NC(=O)[C@H](CC(C)C)NC(=O)[C@H](Cc2ccc(OCc3ccccc3)cc2)NC(=O)OC(C)(C)C)C(=O)Cc2ccccc2)c(C)c2c1OC(C)(C)CC2
[1]
  solubility: 400 µM (≈ 398 µg/mL)

## N=C(N)NCCC[C@H](NC(=O)[C@H](Cc1ccccc1)NC(=O)[C@@H](Cc1ccccc1)NC(=O)OCc1ccccc1)C(=O)Cc1ccccc1
Coagulation factor VII [2]
  IC50: 16 µM
Coagulation factor VII [3]
  Ki: 8 µM
[1]
  solubility: 400 µM (≈ 271 µg/mL)

## Cc1c(C)c(S(=O)(=O)NC(=N)NCCCC[C@H](NC(=O)[C@H](Cc2ccccc2)NC(=O)[C@H](Cc2ccccc2)NC(=O)OCc2ccccc2)C(=O)Cc2ccccc2)c(C)c2c1OC(C)(C)CC2
[1]
  solubility: 400 µM (≈ 383 µg/mL)

## C[C@@H](O)[C@H](NC(=O)[C@@H](N)Cc1ccc(O)cc1)C(=O)N[C@@H](CCCCNC(=N)N)C(=O)Cc1ccccc1
Prothrombin [4]
  inhibition: 5.5%
[5]
  inhibition: 18.9%
Coagulation factor X [6]
  inhibition: 30.4%

## Cc1c(C)c(S(=O)(=O)NC(=N)NCCCC[C@H](NC(=O)[C@H](Cc2ccccc2)NC(=O)[C@@H](Cc2ccccc2)NC(=O)OC(C)(C)C)C(=O)Cc2ccccc2)c(C)c2c1OC(C)(C)CC2
[1]
  solubility: 400 µM (≈ 369 µg/mL)

## CC(=O)N[C@@H](Cc1ccc(O)cc1)C(=O)N[C@H](C(=O)N[C@@H](CCCNC(=N)N)C(=O)Cc1ccccc1)[C@@H](C)O
Coagulation factor VII [2]
  IC50: > 1340 µM
[1]
  solubility: 400 µM (≈ 222 µg/mL)

## Cc1c(C)c(S(=O)(=O)NC(=N)NCCC[C@H](NC(=O)[C@H](CC(C)C)NC(=O)OC(C)(C)C)C(=O)Cc2ccccc2)c(C)c2c1OC(C)(C)CC2
[1]
  solubility: 400 µM (≈ 291 µg/mL)

## Cc1c(C)c(S(=O)(=O)NC(=N)NCCCC[C@H](NC(=O)[C@H](Cc2ccccc2)NC(=O)[C@@H](Cc2ccccc2)NC(=O)OCc2ccccc2)C(=O)Cc2ccccc2)c(C)c2c1OC(C)(C)CC2
[1]
  solubility: 400 µM (≈ 383 µg/mL)

## N=C(N)NCCC[C@H](NC(=O)[C@H](Cc1ccccc1)NC(=O)[C@H](Cc1ccccc1)NC(=O)OCc1ccccc1)C(=O)Cc1ccccc1
Coagulation factor VII [2]
  IC50: 109 µM
Coagulation factor VII [3]
  Ki: 89 µM
[1]
  solubility: 400 µM (≈ 271 µg/mL)

## CC(=O)N[C@@H](Cc1ccccc1)C(=O)N[C@@H](Cc1ccccc1)C(=O)N[C@@H](CCCNC(=N)N)C(=O)Cc1ccccc1
Coagulation factor VII [2]
  IC50: > 400 µM
[1]
  solubility: 400 µM (≈ 234 µg/mL)

## Cc1c(C)c(S(=O)(=O)NC(=N)NCCCC[C@H](NC(=O)[C@H](CC(C)C)NC(=O)[C@H](Cc2ccc(OCc3ccccc3)cc2)NS(=O)(=O)Cc2ccccc2)C(=O)Cc2ccccc2)c(C)c2c1OC(C)(C)CC2
[1]
  solubility: 400 µM (≈ 420 µg/mL)

## Cc1c(C)c(S(=O)(=O)NC(=N)NCCCC[C@H](NC(=O)[C@H](CC(C)C)NC(=O)[C@H](Cc2ccccc2)NC(=O)OC(C)(C)C)C(=O)Cc2ccccc2)c(C)c2c1OC(C)(C)CC2
[1]
  solubility: 400 µM (≈ 356 µg/mL)

## C[C@@H](O)[C@H](NC(=O)[C@@H](N)Cc1ccc(O)cc1)C(=O)N[C@@H](CCCCN=C(N)N)C(=O)Cc1ccccc1
Coagulation factor X [7]
  IC50: > 1340 µM
Prothrombin [8]
  IC50: > 1340 µM

## CC(=O)N[C@@H](Cc1ccc(OCc2ccccc2)cc1)C(=O)N[C@H](C(=O)N[C@@H](CCCCNC(=N)NS(=O)(=O)c1c(C)c(C)c2c(c1C)CCC(C)(C)O2)C(=O)Cc1ccccc1)[C@@H](C)OCc1ccccc1
[1]
  solubility: 400 µM (≈ 406 µg/mL)

## Cc1c(C)c(S(=O)(=O)NC(=N)NCCCC[C@H](NC(=O)[C@H](Cc2ccccc2)NC(=O)[C@H](Cc2ccccc2)NC(=O)OC(C)(C)C)C(=O)Cc2ccccc2)c(C)c2c1OC(C)(C)CC2
[1]
  solubility: 400 µM (≈ 369 µg/mL)

## Cc1c(C)c(S(=O)(=O)NC(=N)NCCC[C@H](NC(=O)[C@@H](NC(=O)OC(C)(C)C)[C@@H](C)OCc2ccccc2)C(=O)Cc2ccccc2)c(C)c2c1OC(C)(C)CC2
[1]
  solubility: 400 µM (≈ 322 µg/mL)

## C[C@@H](O)[C@H](NC(=O)[C@@H](N)Cc1ccc(O)cc1)C(=O)N[C@@H](CCCNC(=N)N)C(=O)Cc1ccccc1
Coagulation factor VII [2]
  IC50: > 1340 µM
[1]
  solubility: 400 µM (≈ 205 µg/mL)

## CC(=O)N[C@@H](Cc1ccccc1)C(=O)N[C@@H](Cc1ccccc1)C(=O)N[C@@H](CCCCNC(=N)NS(=O)(=O)c1c(C)c(C)c2c(c1C)CCC(C)(C)O2)C(=O)Cc1ccccc1
[1]
  solubility: 400 µM (≈ 346 µg/mL)

## Cc1c(C)c(S(=O)(=O)NC(=N)NCCC[C@H](NC(=O)[C@H](Cc2ccccc2)NC(=O)OC(C)(C)C)C(=O)Cc2ccccc2)c(C)c2c1OC(C)(C)CC2
[1]
  solubility: 400 µM (≈ 305 µg/mL)

## N=C(N)NCCC[C@H](NC(=O)[C@H](Cc1ccccc1)NC(=O)[C@H](Cc1ccccc1)NS(=O)(=O)Cc1ccccc1)C(=O)Cc1ccccc1
Coagulation factor VII [2]
  IC50: 26 µM
Coagulation factor VII [3]
  Ki: 43 µM
[1]
  solubility: 400 µM (≈ 279 µg/mL)

## N=C(N)NCCC[C@H](NC(=O)[C@H](Cc1ccccc1)NC(=O)[C@@H](Cc1ccccc1)NS(=O)(=O)Cc1ccccc1)C(=O)Cc1ccccc1
Coagulation factor VII [2]
  IC50: 640 µM
[1]
  solubility: 400 µM (≈ 279 µg/mL)

## CC(C)C[C@H](NC(=O)[C@H](Cc1ccccc1)NS(=O)(=O)Cc1ccccc1)C(=O)N[C@@H](CCCNC(=N)N)C(=O)Cc1ccccc1
Coagulation factor VII [2]
  IC50: > 580 µM
[1]
  solubility: 400 µM (≈ 265 µg/mL)

## Cc1c(C)c(S(=O)(=O)NC(=N)NCCCC[C@H](NC(=O)[C@@H](NC(=O)[C@H](Cc2ccc(OCc3ccccc3)cc2)NS(=O)(=O)Cc2ccccc2)[C@@H](C)OCc2ccccc2)C(=O)Cc2ccccc2)c(C)c2c1OC(C)(C)CC2
[1]
  solubility: 400 µM (≈ 451 µg/mL)

## N=C(N)NCCC[C@H](NC(=O)[C@H](Cc1ccccc1)NC(=O)[C@@H](N)Cc1ccccc1)C(=O)Cc1ccccc1
Coagulation factor VII [2]
  IC50: > 1480 µM
[1]
  solubility: 400 µM (≈ 217 µg/mL)
